Test results taken from PMC11449226, “Characterization of a β-carotene isomerase from the cyanobacterium Cyanobacteria aponinum” (Philosophical Transactions of the Royal Society B: …, 2024).

Molecular target: T1, CaD27 (Cyanobacterium aponinum, UniProt K9Z764)
T1 construct: gene Cyan10605_2981; thioredoxin fusion (pThio-Dan1-CaD27(-cTP)) in E. coli BL21(DE3) with pGro7 chaperones; crude lysate; Pfam PF13225 family
T1 sequence (K9Z764 1-216): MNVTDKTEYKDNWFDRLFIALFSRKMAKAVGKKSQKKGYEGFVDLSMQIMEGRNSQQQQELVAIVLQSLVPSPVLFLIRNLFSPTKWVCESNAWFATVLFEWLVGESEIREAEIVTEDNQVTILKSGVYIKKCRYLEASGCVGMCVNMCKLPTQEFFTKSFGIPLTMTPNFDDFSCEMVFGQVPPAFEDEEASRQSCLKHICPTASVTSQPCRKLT
Experiment: isomerization assay, UHPLC
Assay type: biochemical
Conditions: crude lysate of E. coli expressing thioredoxin-CaD27, compared with thioredoxin control

SMILES | isomerization assay, UHPLC (product 9-cis-beta-carotene) | isomerization assay, UHPLC (products 9-cis- and 13-cis-beta-carotene, also tested in beta-carotene-accumulating E. coli)
CC1=C(/C=C/C(C)=C/C=C/C(C)=C\C=C\C=C(C)\C=C\C=C(C)\C=C\C2=C(C)CCCC2(C)C)C(C)(C)CCC1 [13-cis-β-carotene] | thioredoxin-CaD27 converted 13-cis-β-carotene into 9-cis-β-carotene | –
CC1=C(/C=C/C(C)=C/C=C/C(C)=C/C=C/C=C(C)/C=C/C=C(C)/C=C/C2=C(C)CCCC2(C)C)C(C)(C)CCC1 [all-trans-β-carotene] | – | we only detected the isomerization of all-trans-β-carotene into 9-cis, and 13-cis-β-carotene
